From patent US9475816B2, “Substituted-1,4-dihydropyrazolo[4,3-b]indoles” (TAKEDA PHARMACEUTICAL COMPANY LIMITED, priority 2012, dated 2016)

Experiments:
human MetAP2 enzyme [1] = target: T1, human MetAP2 enzyme (Homo sapiens, UniProt P50579); assay: MetAP2 enzyme assay, MetAP2 enzyme complexed with cobalt ions; details: MetAP2 Co pIC50, 10 μM CoCl2; -log(IC50), IC50 molar
Procedure: (§1) DNA encoding the full-length sequence of human MetAP2 enzyme is amplified by PCR and cloned into a pFastBac expression vector (Invitrogen). Recombinant baculovirus incorporating the MetAP2 construct is generated by transposition using the Bac-to-Bac system (Invitrogen). The expression of recombinant protein is carried out by infection of Spodoptera frugiperda Sf9 cells (Invitrogen) in 5L Wave Bioreactors (Wave Biotech). Recombinant protein is isolated from cellular extracts by binding to an SP Hitrap Fast Flow or SP Sepharose (Sigma) column, and the protein is eluted using a NaCl gradient. Partially purified extracts of MetAP2 are further purified by an AKTA FPLC over a Superdex-200 column (GE). The purity of MetAP2 protein is determined on denaturing SDS-PAGE gel.
(§2) The results for each well are expressed as percent inhibition and calculated using the equation:

human MetAP2 enzyme [2] = target: T1, human MetAP2 enzyme; assay: MetAP2 enzyme assay, MetAP2 enzyme complexed with manganese ions; details: MetAP2 Mn pIC50, 10 μM MnCl2; -log(IC50), IC50 molar
Procedure: as §1, §2

[3] = mice; cited from earlier work
angiogenesis = details: cited from earlier work
[4] = genetically and diet-induced obese mice; cited from earlier work

T1 sequence (P50579 whole entry): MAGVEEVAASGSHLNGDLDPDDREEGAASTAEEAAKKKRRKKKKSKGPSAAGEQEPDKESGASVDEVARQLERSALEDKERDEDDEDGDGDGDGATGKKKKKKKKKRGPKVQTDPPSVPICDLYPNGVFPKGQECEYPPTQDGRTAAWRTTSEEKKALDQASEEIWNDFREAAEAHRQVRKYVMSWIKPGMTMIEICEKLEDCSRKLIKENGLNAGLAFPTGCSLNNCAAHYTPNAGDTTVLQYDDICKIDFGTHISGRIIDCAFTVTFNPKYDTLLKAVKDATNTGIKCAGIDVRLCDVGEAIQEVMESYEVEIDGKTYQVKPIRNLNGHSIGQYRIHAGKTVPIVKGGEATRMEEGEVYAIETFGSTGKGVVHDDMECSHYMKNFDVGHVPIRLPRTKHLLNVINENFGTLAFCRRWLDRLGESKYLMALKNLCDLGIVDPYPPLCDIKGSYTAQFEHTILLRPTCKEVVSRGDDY

Compound	IC50 (human MetAP2 enzyme [1]) [nM]	IC50 (human MetAP2 enzyme [2]) [nM]	effect on diet-induced obesity [3]	angiogenesis (angiogenesis)	food intake, body weight, fat mass, size of adipocytes [4]
Cc1nc(C(=O)NCC(N)=O)ccc1-n1c2ccc(F)cc2c2[nH]ncc21 [Example 124, N-(2-Amino-2-oxoethyl)-5-(7-fluoropyrazolo[4,3-b]indol-4(1H)-yl)-6-methylpicolinamide]	10	12.6	–	–	–
Cc1nc(C(=O)N2CC(C#N)C2)ccc1-n1c2ccc(F)cc2c2[nH]ncc21 [Example 125, 1-(5-(7-Fluoropyrazolo[4,3-b]indol-4(1H)-yl)-6-methylpicolinoyl)azetidine-3-carbonitrile]	12.6	10	–	–	–
Cc1nc(C(=O)NC[C@H](C)O)ccc1-n1c2ccc(F)cc2c2[nH]ncc21 [Example 126, 5-(7-Fluoropyrazolo[4,3-b]indol-4(1H)-yl)-N-((2S)-2-hydroxypropyl)-6-methylpicolinamide]	10	10	–	–	–
Cc1nc(N2CC(O)C2)ncc1-n1c2ccc(F)cc2c2[nH]ncc21 [Example 127, 1-(5-(7-Fluoropyrazolo[4,3-b]indol-4(1H)-yl)-4-methylpyrimidin-2-yl)azetidin-3-ol]	7.94	15.8	–	–	–
Cc1nc2[nH]cnc2cc1-n1c2cc(Cl)ccc2c2[nH]ncc21 [Example 128, 6-Chloro-4-(5-methyl-3H-imidazo[4,5-b]pyridin-6-yl)-1,4-dihydropyrazolo[4,3-b]indole]	79.4	63.1	–	–	–
Cc1nc2[nH]cnc2cc1-n1c2cc(Cl)c(F)cc2c2[nH]ncc21 [Example 129, 6-Chloro-7-fluoro-4-(5-methyl-3H-imidazo[4,5-b]pyridin-6-yl)-1,4-dihydropyrazolo[4,3-b]indole]	25.1	50.1	–	–	–
Cc1nc2[nH]cnc2cc1-n1c2cc(F)c(F)cc2c2[nH]ncc21 [Example 130, 6,7-Difluoro-4-(5-methyl-3H-imidazo[4,5-b]pyridin-6-yl)-1,4-dihydropyrazolo[4,3-b]indole]	10	12.6	–	–	–
Cc1cc2c(cc1F)c1[nH]ncc1n2-c1cc2[nH]cnc2nc1C [Example 131, 7-Fluoro-6-methyl-4-(5-methyl-1H-imidazo[4,5-b]pyridin-6-yl)-1,4-dihydropyrazolo[4,3-b]indole]	12.6	7.94	–	–	–
CC(c1ccccc1)n1c2ccc(F)cc2c2[nH]ncc21 (stereo not drawn) [Example 132, 7-Fluoro-4-(1-phenylethyl)-1,4-dihydropyrazolo[4,3-b]indole]	50.1	50.1	–	–	–
Cc1nc(CCS(C)(=O)=O)ccc1-n1c2ccc(F)cc2c2[nH]ncc21 [Example 133, 7-Fluoro-4-(2-methyl-6-(2-(methylsulfonyl)ethyl)pyridin-3-yl)-1,4-dihydropyrazolo[4,3-b]indole]	10	6.31	–	–	–
OCc1nn(C(F)F)cc1-n1c2ccc(F)cc2c2[nH]ncc21 [Example 134, (1-(Difluoromethyl)-4-(7-fluoropyrazolo[4,3-b]indol-4(1H)-yl)-1H-pyrazol-3-yl)methanol]	15.8	6.31	–	–	–
Cc1nc(N2C[C@H]3C[C@H]3[C@@H]2C(N)=O)ncc1-n1c2ccc(F)cc2c2[nH]ncc21 [Example 135, (1R,2R,5S)-3-(5-(7-Fluoropyrazolo[4,3-b]indol-4(1H)-yl)-4-methylpyrimidin-2-yl)-3-azabicyclo[3.1.0]hexane-2-carboxamide]	5.01	5.01	–	–	–
Cc1nc(N2C[C@H]3C[C@H]3[C@H]2C(N)=O)ncc1-n1c2ccc(F)cc2c2[nH]ncc21 [Example 136, (1R,2S,5S)-3-(5-(7-Fluoropyrazolo[4,3-b]indol-4(1H)-yl)-4-methylpyrimidin-2-yl)-3-azabicyclo[3.1.0]hexane-2-carboxamide]	5.01	5.01	–	–	–
Cc1nc(N2CC[C@H](S(C)(=O)=O)C2)ncc1-n1c2ccc(F)cc2c2[nH]ncc21 [Example 137, 7-Fluoro-4-(4-methyl-2-((S)-3-(methylsulfonyl)pyrrolidin-1-yl)pyrimidin-5-yl)-1,4-dihydropyrazolo[4,3-b]indole]	10	6.31	–	–	–
Cn1cc(-n2c3ccc(F)cc3c3[nH]ncc32)c(CO)n1 [Example 138, (4-(7-Fluoropyrazolo[4,3-b]indol-4(1H)-yl)-1-methyl-1H-pyrazol-3-yl)methanol]	10	5.01	–	–	–
CO[C@@H]1[C@H](OC(=O)/C=C/C=C/C=C/C=C/C(=O)O)CC[C@]2(CO2)[C@H]1[C@@]1(C)O[C@@H]1CC=C(C)C [fumagillin]	–	–	impair diet-induced obesity	inhibit angiogenesis	–
beloranib hemioxalate [CKD-732]	–	–	–	–	decrease food intake, body weight, fat mass, and the size of adipocytes
